Where a name gives a salt, the structure may show the parent alone.
Legend:
[1] = Pharmacokinetic evaluation in mice, experimental operation B (C57BL/6N); type: in vivo; settings: C57BL/6N mice
Excerpt: (§1) In this study, CD-1 or C57BL/6N male mice were selected as test animals, and LC/MS/MS method was used to quantify plasma concentrations of the test compound intravenously injected or intragastrically administered to mice at different time points, so as to evaluate the pharmacokinetic profile of the test drug in mice.
CD-1 mice (male, 20 to 35 g, 7 to 10 weeks old, Beijing Vital River) or C57BL/6N mice (male, 20 to 30 g, 7 to 10 weeks old, Beijing Vital River)
A clarified solution or suspension of the test compound was injected into C57BL/6N mice (overnight fasting) via the tail vein (vehicle: 5% DMSO/10% Solutol/85% H2O), or intragastrically administered into C57BL/6N mice (overnight fasting). For intravenous injection, […] of blood was collected via the cheek puncture at 0 h (pre-administration) and 0.083 h, 0.25 h, 0.5 h, 1 h, 2 h, 4 h, 6 h, 8 h, and 24 h after administration, and placed in an anticoagulant tube added with heparin sodium. The mixture was thoroughly vortexed and mixed, and centrifuged at 6000 g for 3 minutes at 2 to 8° C. For oral administration, blood was collected via the cheek puncture at 0 h (pre-administration) and 0.083 h, 0.25 h, 1 h, 2 h, 4 h, 6 h, 8 h, and 24 h after administration, and placed in an anticoagulant tube added with heparin sodium. The mixture was thoroughly vortexed and mixed, and centrifuged at 6000 g for 3 minutes at 2 to 8° C. Plasma concentrations were determined by LC-MS/MS method, and relevant pharmacokinetic parameters were calculated using Phoenix WinNonlin 8.2.0 pharmacokinetic software with non-compartmental model linear-log trapezoidal method.

[2] = Pharmacokinetic evaluation in cynomolgus monkeys; type: in vivo
Excerpt: as §1, with “study,” for “study, CD-1 or C57BL/6N”, “cynomolgus monkeys” for “mice”, “cynomolgus monkeys.” for “mice.”
Cynomolgus monkeys (male, 2 to 5 kg, Hainan Jingang Biotech Co., Ltd.).
A clarified solution of the test compound was slowly injected into cynomolgus monkeys (feeding) via the peripheral vein (vehicle: 5% DMSO/10% Solutol/85% H2O), or intragastrically administered into cynomolgus monkeys (feeding). For intravenous injection, 0.5 mL of blood was collected from the peripheral vein at 0 h (pre-administration) and 0.083 h, 0.25 h, 0.5 h, 1 h, 2 h, 4 h, 6 h, 8 h, and 24 h after administration, placed in an anticoagulant tube added with EDTA-2K, and centrifuged at 3200 g for 10 minutes at 2 to 8° C. to separate the supernatant. For oral administration, 0.5 mL of blood was collected from the peripheral vein at 0 h (pre-administration) and 0.083 h, 0.25 h, 0.5 h, 1 h, 2 h, 4 h, 6 h, 8 h, and 24 h after administration, placed in an anticoagulant tube added with EDTA-2K, and centrifuged at 3200 g for 10 minutes at 2 to 8° C. to separate the supernatant. Plasma concentrations were determined by LC-MS/MS method, and relevant pharmacokinetic parameters were calculated using Phoenix WinNonlin 6.3 pharmacokinetic software with non-compartmental model linear-log trapezoidal method.

[3] = Intragastric administration 10 mg/kg
[4] = Intragastric administration (5 mg/kg)

- Area under the drug-time curve (0-inf) [1, 3]: 2.51 µM·h
- Peak concentration [1, 3]: 0.4 µM
- Time to peak concentration [1, 3]: 1.33 h
- Area under the drug-time curve (0-inf) ([1]; Intravenous injection 2 mg/kg): 1.45 µM·h
- bioavailability ([1]; male, mouse, plasma, IV 2 mg/kg, PO 10 mg/kg, read-out: Bioavailability F): 34.6%
- clearance ([1]; male, mouse, plasma, Intravenous injection 2 mg/kg): 27.6 mL/min/kg
- Vd ([1]; male, mouse, plasma, Intravenous injection 2 mg/kg, read-out: Apparent volume of distribution): 4.82 L/kg
- half-life ([1]; male, mouse, plasma, Intravenous injection 2 mg/kg, read-out: Elimination half-life (converted)): 4.25 h
- Area under the drug-time curve (0-inf) [2, 4]: 1.14 µM·h
- Peak concentration [2, 4]: 0.14 µM
- Time to peak concentration [2, 4]: 4.0 h
- Area under the drug-time curve (0-inf) ([2]; Intravenous injection (0.5 mg/kg)): 0.21 µM·h
- clearance ([2]; male, cynomolgus monkey, plasma, Intravenous injection (0.5 mg/kg)): 48.5 mL/min/kg
- Vd ([2]; male, cynomolgus monkey, plasma, Intravenous injection (0.5 mg/kg), read-out: Apparent volume of distribution): 8.83 L/kg
- half-life ([2]; male, cynomolgus monkey, plasma, Intravenous injection (0.5 mg/kg), read-out: Elimination half-life (converted)): 2.33 h
- bioavailability ([2]; male, cynomolgus monkey, plasma, oral, IV 0.5 mg/kg, intragastric 5 mg/kg, read-out: Bioavailability F): 55.5%
SMILES: O=C1CCC(c2noc3c(NC(=O)CN4CCN(C[C@H]5CC[C@H](n6cc(NC(=O)c7cnn8ccc(N9C[C@H]%10C[C@@H]9CO%10)nc78)c(C(F)F)n6)CC5)CC4)cccc23)C(=O)N1 (stereo partly shown) [Hydrochloride of WX015]

From US20250127905A1, “GLUTARIMIDE COMPOUND AND USE THEREOF” (MEDSHINE DISCOVERY INC., priority 2021, published 2025)
